Results as given in patent US20250236608A1, “EGFR INHIBITORS” (Blueprint Medicines Corporation, priority 2022, published 2025).

Columns and labels:
EGFR (d746-750) = EGFR (d746-750) (Homo sapiens (Human), UniProt P00533, DEL746-750); test: Biochemical EGFR inhibition assay, EGFR (d746-750); details: Caliper mobility shift; 1.0 mM ATP or ATP Km; read-out: Enz EGFR_Exon19-del746-750 IC50
EGFR L858R = EGFR L858R (Homo sapiens (Human), UniProt P00533, L858R); test: Biochemical EGFR inhibition assay, EGFR L858R; details: Caliper mobility shift; 1.0 mM ATP or ATP Km; read-out: Enz EGFR_L858R IC50
Chain of EGFR L858R (P00533 25-1210 L858R): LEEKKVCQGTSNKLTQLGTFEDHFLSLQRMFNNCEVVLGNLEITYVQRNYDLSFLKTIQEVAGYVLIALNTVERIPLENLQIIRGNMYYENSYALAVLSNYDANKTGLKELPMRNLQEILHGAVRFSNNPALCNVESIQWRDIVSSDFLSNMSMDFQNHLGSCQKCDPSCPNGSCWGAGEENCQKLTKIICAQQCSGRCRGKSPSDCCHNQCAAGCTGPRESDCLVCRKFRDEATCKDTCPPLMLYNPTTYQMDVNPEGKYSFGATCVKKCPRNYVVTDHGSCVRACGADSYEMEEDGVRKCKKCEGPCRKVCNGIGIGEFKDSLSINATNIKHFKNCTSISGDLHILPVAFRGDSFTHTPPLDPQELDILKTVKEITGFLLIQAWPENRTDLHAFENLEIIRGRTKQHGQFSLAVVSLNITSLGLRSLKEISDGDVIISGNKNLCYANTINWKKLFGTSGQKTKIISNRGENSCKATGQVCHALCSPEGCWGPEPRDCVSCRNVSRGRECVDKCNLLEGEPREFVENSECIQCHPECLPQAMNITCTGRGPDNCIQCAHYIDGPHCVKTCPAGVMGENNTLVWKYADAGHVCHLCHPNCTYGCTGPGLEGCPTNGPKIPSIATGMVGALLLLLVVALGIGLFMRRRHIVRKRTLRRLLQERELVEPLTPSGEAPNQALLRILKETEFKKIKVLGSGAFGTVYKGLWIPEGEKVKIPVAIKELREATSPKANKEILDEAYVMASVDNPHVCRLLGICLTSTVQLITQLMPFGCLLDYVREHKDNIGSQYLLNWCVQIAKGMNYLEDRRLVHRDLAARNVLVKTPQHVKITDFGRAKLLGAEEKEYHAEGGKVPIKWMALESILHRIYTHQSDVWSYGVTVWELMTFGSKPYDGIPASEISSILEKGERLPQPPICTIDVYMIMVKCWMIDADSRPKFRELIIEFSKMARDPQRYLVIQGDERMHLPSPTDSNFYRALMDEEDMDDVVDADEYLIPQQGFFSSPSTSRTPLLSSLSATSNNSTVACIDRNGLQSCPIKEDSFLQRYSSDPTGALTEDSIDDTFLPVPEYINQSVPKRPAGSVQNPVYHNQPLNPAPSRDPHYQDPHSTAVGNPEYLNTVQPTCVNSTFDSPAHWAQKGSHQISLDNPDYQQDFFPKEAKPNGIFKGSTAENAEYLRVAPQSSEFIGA

[1] = target: pEGFR (Tyr1068) in PC-9 cells (Ex19Del) (Homo sapiens (Human), UniProt P00533, DEL746-750); test: PC-9 pEGFR AlphaLISA assay; format: cell-based; details: 4 hours incubation, p-EGFR (Tyr1068) AlphaLISA, read-out: Ext pEGFR_PC-9 Ex19Del IC50
Chain of pEGFR (Tyr1068) in PC-9 cells (Ex19Del) (P00533 other isoform, or with tags, fused parts or gaps del 746-750): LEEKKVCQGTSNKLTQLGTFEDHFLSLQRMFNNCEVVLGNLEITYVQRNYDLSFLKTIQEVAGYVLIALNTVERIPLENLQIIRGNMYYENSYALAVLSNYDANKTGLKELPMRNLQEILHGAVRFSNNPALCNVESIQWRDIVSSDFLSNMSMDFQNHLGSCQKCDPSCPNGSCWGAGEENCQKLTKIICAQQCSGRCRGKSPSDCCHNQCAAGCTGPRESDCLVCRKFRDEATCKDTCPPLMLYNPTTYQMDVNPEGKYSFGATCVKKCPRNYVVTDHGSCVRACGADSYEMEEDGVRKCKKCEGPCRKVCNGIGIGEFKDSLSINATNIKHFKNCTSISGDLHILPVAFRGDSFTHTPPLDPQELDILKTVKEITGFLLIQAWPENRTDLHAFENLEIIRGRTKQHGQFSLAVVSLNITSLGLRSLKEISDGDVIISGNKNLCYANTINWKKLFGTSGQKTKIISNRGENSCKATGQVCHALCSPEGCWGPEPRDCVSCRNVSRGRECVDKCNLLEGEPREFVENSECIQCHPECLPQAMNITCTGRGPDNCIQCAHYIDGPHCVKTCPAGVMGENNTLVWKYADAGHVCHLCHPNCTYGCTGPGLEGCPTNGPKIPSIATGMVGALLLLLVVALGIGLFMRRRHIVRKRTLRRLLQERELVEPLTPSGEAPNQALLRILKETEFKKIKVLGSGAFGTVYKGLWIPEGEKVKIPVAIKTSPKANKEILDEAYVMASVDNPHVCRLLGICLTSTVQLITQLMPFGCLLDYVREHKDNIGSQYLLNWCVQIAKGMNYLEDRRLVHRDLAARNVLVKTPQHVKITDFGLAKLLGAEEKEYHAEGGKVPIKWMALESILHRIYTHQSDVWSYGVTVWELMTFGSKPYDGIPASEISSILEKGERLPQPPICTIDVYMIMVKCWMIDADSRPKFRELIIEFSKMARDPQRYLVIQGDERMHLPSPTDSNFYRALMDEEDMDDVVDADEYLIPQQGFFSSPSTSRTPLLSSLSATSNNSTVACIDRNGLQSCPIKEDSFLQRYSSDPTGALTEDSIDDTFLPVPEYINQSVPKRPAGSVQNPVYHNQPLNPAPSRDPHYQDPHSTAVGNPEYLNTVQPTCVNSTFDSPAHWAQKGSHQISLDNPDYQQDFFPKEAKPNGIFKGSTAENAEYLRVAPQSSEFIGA
Procedure, shortened: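 Readout: AlphaLISA SureFire Ultra signal in cell lysates, with acceptor beads for 1.5-2 h and donor beads overnight at room temperature in the dark. Beforehand, unstimulated cells in 10% FBS medium received compounds (10 points, 4-fold steps) for 4 h at 37° C. IC50 came from percent inhibition curves.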

Chain of EGFR (d746-750) (P00533 other isoform, or with tags, fused parts or gaps del 1-694/del 746-750 limits assumed): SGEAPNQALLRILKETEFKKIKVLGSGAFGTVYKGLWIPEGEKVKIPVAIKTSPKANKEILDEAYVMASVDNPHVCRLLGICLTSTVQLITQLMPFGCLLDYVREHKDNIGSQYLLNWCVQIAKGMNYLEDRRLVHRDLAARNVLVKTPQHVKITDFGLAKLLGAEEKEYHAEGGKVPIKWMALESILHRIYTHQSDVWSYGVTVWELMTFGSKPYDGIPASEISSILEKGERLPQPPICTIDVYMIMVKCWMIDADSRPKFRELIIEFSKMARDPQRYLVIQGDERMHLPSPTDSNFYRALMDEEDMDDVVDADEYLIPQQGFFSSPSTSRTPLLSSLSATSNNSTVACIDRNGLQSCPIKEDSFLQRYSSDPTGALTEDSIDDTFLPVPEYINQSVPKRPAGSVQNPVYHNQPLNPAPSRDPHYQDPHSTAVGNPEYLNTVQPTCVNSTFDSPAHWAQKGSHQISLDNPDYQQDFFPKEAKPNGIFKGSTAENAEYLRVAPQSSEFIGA

| IC50 (EGFR (d746-750)) [nM] | IC50 (EGFR L858R) [nM] | IC50 [1] [nM] | Compound |
| --- | --- | --- | --- |
| 1.2 | 2.2 | 1.5 | COc1cc2ncnc(-c3cn(C)nc3-c3ccccc3)c2cc1-c1cn(C)nc1C [Example 150, 6-(1,3-dimethyl-1H-pyrazol-4-yl)-7-methoxy-4-(1-methyl-3-phenyl-1H-pyrazol-4-yl)quinazoline] |
| 3 | 5.4 | 11 | COc1cc2ncnc(-c3cn(C)nc3-c3ccccc3)c2cc1N1CCN(C)C1=O [Example 176, 1-(7-methoxy-4-(1-methyl-3-phenyl-1H-pyrazol-4-yl)quinazolin-6-yl)-3-methylimidazolidin-2-one] |
| 0.8 | 1.3 | 2.6 | CCOc1cc2ncnc(-c3cn(C)nc3-c3ccccc3)c2cc1OC1CCOCC1 [Example 24, 7-ethoxy-4-(1-methyl-3-phenyl-1H-pyrazol-4-yl)-6-((tetrahydro-2H-pyran-4-yl)oxy)quinazoline] |
| 2.7 | 6.3 | 3 | COc1cc2ncnc(-c3cn(C4COC4)nc3-c3ccccc3)c2cc1OC(=O)N1CCOC[C@@H]1C [Example 68, 7-methoxy-4-(1-(oxetan-3-yl)-3-phenyl-1H-pyrazol-4-yl)quinazolin-6-yl (S)-3-methylmorpholine-4-carboxylate] |
| 0.9 | 1.5 | 4.8 | CCOc1cc2ncnc(-c3cn(C)nc3-c3ccccc3)c2cc1NC(=O)[C@]12C[C@H]1CN(C)C2 (single isomer, unassigned) [Example 257, (1R,5R)—N-(7-ethoxy-4-(1-methyl-3-phenyl-1H-pyrazol-4-yl)quinazolin-6-yl)-3-methyl-3-azabicyclo[3.1.0]hexane-1-carboxamide or (1S,5S)—N-(7-ethoxy-4-(1-methyl-3-phenyl-1H-pyrazol-4-yl)quinazolin-6-yl)-3-methyl-3-azabicyclo[3.1.0]hexane-1-carboxamide] |
| 1.2 | 1.8 | 2.1 | COCCOc1cc2ncnc(-c3cn(CC(F)F)nc3-c3ccccc3)c2cc1OC [Example 16, 4-(1-(2,2-difluoroethyl)-3-phenyl-1H-pyrazol-4-yl)-6-methoxy-7-(2-methoxyethoxy)quinazoline] |
| 0.9 | 2.1 | 1.4 | COc1cc2ncnc(-c3cn(CC(F)F)nc3-c3ccccc3)c2cc1OC(=O)N1CCOC[C@@H]1C [Example 76, 4-(1-(2,2-difluoroethyl)-3-phenyl-1H-pyrazol-4-yl)-7-methoxyquinazolin-6-yl (S)-3-methylmorpholine-4-carboxylate] |
| 1.9 | 4.4 | 11.7 | COc1cc2ncnc(-c3cn(C)nc3-c3ccccc3)c2nc1O[C@H](C)c1nnnn1C [Example 46, (R)-7-methoxy-6-(1-(1-methyl-1H-tetrazol-5-yl)ethoxy)-4-(1-methyl-3-phenyl-1H-pyrazol-4-yl)pyrido[3,2-d]pyrimidine] |
| 0.8 | 1.4 | 1.9 | COc1cc2ncnc(-c3cn(C)nc3-c3ccccc3)c2nc1O[C@H](C)c1cn(C)nn1 [Example 43, (R)-7-methoxy-6-(1-(1-methyl-1H-1,2,3-triazol-4-yl)ethoxy)-4-(1-methyl-3-phenyl-1H-pyrazol-4-yl)pyrido[3,2-d]pyrimidine] |
| 1.1 | 2.1 | 4.9 | COc1cc2ncnc(-c3cn(C)nc3-c3ccccc3)c2cc1NC(=O)c1cnn(CC(F)(F)F)c1 [Example 203, N-(7-methoxy-4-(1-methyl-3-phenyl-1H-pyrazol-4-yl)quinazolin-6-yl)-1-(2,2,2-trifluoroethyl)-1H-pyrazole-4-carboxamide] |
| 0.9 | 2.1 | 3.8 | COc1cc2ncnc(-c3cn(C)nc3-c3ccccc3)c2cc1NC(=O)C1(c2cccnc2)CC1 [Example 216, N-(7-methoxy-4-(1-methyl-3-phenyl-1H-pyrazol-4-yl)quinazolin-6-yl)-1-(pyridin-3-yl)cyclopropane-1-carboxamide] |
| 1.4 | 2.1 | 1.4 | COc1cc2ncnc(-c3cn(CC(F)F)nc3-c3ccccc3)c2cc1NC(=O)c1cnn(C(C)C)c1 [Example 270, N-(4-(1-(2,2-difluoroethyl)-3-phenyl-1H-pyrazol-4-yl)-7-methoxyquinazolin-6-yl)-1-isopropyl-1H-pyrazole-4-carboxamide] |
| 0.9 | 3.8 | 4.2 | COc1cc2ncnc(-c3cn(C)nc3-c3ccccc3)c2cc1NC(=O)[C@]1(C)CCCO1 (single isomer, unassigned) [Example 258, (S)—N-(7-methoxy-4-(1-methyl-3-phenyl-1H-pyrazol-4-yl)quinazolin-6-yl)-2-methyltetrahydrofuran-2-carboxamide or (R)—N-(7-methoxy-4-(1-methyl-3-phenyl-1H-pyrazol-4-yl)quinazolin-6-yl)-2-methyltetrahydrofuran-2-carboxamide] |
| 1.6 | 2.7 | 1.1 | COc1cc2ncnc(-c3cn(C)nc3-c3ccccc3)c2cc1NC(=O)C1CC(OC)C1 (stereo not drawn) [Example 215, 3-methoxy-N-(7-methoxy-4-(1-methyl-3-phenyl-1H-pyrazol-4-yl)quinazolin-6-yl)cyclobutane-1-carboxamide] |
| 1.8 | 3.1 | 4.3 | COc1cc2ncnc(-c3cn(C)nc3-c3ccccc3)c2cc1O[C@@H]1CCOC[C@H]1F [Example 18, 6-(((3R,4R)-3-fluorotetrahydro-2H-pyran-4-yl)oxy)-7-methoxy-4-(1-methyl-3-phenyl-1H-pyrazol-4-yl)quinazoline] |
| 1.6 | 2.2 | 0.7 | COc1cc2ncnc(-c3cn(C)nc3-c3ccccc3)c2cc1NC(=O)[C@H]1C[C@H]1C [Example 282, (1S,2R)—N-(7-methoxy-4-(1-methyl-3-phenyl-1H-pyrazol-4-yl)quinazolin-6-yl)-2-methylcyclopropane-1-carboxamide] |
| 1 | 3.8 | 1.2 | Cn1cc(-c2ncnc3cc(OC4CC4)c(NC(=O)[C@]45COCC4C5)nc23)c(-c2ccccc2)n1 (stereo partly drawn) [Example 459, (1S)—N-[7-cyclopropoxy-4-(1-methyl-3-phenyl-1H-pyrazol-4-yl)pyrido[3,2-d]pyrimidin-6-yl]-3-oxabicyclo[3.1.0]hexane-1-carboxamide] |
| 2.5 | 5.6 | 7.8 | COc1cc2ncnc(-c3cn(C)nc3-c3ccccc3)c2cc1NC(=O)C(C)(C)N(C)C [Example 246, 2-(dimethylamino)-N-(7-methoxy-4-(1-methyl-3-phenyl-1H-pyrazol-4-yl)quinazolin-6-yl)-2-methylpropanamide] |
| 1.3 | 2.1 | 5.2 | CCOc1cc2ncnc(-c3cn(C)nc3-c3ccccc3)c2cc1[C@@H](C)O (single isomer, unassigned) [Example 104, (R)-1-(7-ethoxy-4-(1-methyl-3-phenyl-1H-pyrazol-4-yl)quinazolin-6-yl)ethan-1-ol or (S)-1-(7-ethoxy-4-(1-methyl-3-phenyl-1H-pyrazol-4-yl)quinazolin-6-yl)ethan-1-ol] |
